Measurements: patent publication US20250361230A1, “LATS Inhibitors and Uses Thereof” (The USA, as Represented by the Secretary, Dept. of Heath …, priority 2022, published 2025)

How the values were obtained:
Type in all cases: biochemical
[1] = target: T1, LATS1 (Homo sapiens, UniProt O95835); experiment: RBC HotSpot kinase assay (33P-ATP, P81 filter-binding), LATS1; conditions: Table 28, biochemical kinase assay; read-out: LATS1 IC50
T1 sequence (O95835 1-1130): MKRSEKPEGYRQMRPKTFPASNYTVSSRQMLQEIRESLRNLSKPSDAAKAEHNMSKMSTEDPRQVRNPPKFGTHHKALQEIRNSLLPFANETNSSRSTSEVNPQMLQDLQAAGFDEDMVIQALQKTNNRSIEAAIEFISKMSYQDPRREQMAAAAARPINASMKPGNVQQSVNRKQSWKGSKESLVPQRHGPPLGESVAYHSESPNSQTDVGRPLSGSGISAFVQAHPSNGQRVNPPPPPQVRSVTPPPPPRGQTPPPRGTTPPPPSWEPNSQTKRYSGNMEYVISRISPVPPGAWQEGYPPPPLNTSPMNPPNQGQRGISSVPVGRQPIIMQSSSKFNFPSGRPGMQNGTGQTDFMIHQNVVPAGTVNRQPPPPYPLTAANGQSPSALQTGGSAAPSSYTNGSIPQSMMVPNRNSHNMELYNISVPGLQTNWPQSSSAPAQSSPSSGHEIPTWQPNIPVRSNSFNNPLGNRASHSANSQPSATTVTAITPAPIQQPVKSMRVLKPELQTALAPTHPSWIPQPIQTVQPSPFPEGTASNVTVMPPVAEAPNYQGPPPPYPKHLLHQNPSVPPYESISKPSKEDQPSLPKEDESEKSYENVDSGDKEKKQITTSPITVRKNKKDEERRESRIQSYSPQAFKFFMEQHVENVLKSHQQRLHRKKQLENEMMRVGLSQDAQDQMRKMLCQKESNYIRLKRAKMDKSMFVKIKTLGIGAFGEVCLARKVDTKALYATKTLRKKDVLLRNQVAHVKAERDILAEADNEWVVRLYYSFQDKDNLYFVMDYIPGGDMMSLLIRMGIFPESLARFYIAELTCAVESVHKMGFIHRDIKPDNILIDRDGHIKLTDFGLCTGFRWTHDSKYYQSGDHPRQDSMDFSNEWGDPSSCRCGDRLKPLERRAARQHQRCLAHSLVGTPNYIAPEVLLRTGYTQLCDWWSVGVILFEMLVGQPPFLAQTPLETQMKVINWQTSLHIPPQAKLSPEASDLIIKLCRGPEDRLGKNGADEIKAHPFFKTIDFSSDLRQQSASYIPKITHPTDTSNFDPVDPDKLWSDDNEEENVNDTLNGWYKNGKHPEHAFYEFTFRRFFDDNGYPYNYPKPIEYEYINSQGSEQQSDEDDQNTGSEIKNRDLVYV
How it was run: (§1)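 Kinase in Hepes pH 7.5 buffer with Mg2+, EGTA, Brij35, BSA, vanadate, DTT and 1% DMSO, plus required cofactors and substrate, was preincubated 20 min at room temperature with compound. Reaction was started with 33P-ATP and run 2 h, then detected by P81 filter binding. IC50 (nM) came from 10-point singlet curves.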

[2] = target: AKT (Homo sapiens, UniProt P31749); experiment: RBC HotSpot kinase assay (33P-ATP, P81 filter-binding), AKT; conditions: Table 28, biochemical kinase assay; read-out: AKT IC50
How it was run: as §1

[3] = target: T2, LATS2 (Homo sapiens, UniProt Q9NRM7); experiment: RBC HotSpot kinase assay (33P-ATP, P81 filter-binding), LATS2; conditions: Table 28, biochemical kinase assay; read-out: LATS2 IC50
T2 sequence (Q9NRM7 1-1088): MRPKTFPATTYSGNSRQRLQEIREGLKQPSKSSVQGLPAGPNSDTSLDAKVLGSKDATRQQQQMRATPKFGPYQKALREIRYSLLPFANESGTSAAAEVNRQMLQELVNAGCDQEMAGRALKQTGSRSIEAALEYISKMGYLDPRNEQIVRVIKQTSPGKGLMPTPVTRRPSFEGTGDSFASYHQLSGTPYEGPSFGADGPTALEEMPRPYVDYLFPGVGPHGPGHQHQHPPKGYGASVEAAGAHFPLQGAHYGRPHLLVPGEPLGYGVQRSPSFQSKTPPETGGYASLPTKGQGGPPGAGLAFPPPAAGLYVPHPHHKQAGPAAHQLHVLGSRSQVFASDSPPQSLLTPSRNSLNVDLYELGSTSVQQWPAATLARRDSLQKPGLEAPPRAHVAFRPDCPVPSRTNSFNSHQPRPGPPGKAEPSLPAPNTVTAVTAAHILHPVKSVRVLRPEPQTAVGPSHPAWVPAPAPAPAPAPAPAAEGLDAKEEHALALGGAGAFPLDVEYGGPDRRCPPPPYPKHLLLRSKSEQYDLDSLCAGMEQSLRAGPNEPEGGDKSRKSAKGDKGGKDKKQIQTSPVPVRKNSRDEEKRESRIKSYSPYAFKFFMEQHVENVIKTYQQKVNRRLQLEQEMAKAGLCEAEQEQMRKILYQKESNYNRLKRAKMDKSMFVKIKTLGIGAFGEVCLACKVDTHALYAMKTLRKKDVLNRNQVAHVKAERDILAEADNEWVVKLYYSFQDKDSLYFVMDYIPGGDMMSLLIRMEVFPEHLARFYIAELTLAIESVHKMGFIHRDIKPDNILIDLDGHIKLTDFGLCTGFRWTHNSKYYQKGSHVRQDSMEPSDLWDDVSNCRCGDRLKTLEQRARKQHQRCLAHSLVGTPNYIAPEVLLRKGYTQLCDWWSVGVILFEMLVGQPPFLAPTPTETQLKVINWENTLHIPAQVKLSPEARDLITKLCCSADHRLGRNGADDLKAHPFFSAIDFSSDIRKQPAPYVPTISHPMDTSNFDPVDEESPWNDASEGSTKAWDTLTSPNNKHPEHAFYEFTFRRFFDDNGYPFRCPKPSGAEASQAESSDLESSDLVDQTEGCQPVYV
How it was run: as §1

AKT, sequence (P31749 whole entry): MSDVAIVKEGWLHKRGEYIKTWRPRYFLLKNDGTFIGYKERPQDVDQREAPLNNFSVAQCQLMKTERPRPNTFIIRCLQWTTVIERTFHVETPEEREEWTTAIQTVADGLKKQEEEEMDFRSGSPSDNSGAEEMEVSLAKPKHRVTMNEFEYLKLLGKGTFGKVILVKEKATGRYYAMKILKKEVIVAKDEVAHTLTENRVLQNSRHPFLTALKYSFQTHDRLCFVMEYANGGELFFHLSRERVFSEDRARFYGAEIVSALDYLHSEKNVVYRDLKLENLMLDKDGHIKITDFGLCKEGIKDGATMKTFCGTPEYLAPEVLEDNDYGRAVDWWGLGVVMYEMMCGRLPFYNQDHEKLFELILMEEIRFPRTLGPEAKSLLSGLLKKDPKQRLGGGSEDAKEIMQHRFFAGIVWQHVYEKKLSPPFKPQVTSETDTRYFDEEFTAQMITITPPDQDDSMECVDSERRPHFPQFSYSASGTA

## Cc1cc(-c2ccnc3[nH]cc(F)c23)ncc1[C@@]1(O)[C@H](C)CN(C2CCS(=O)(=O)CC2)C[C@@H]1C [Compound 51, 4-((3R,4s,5S)-4-(6-(3-fluoro-1H-pyrrolo[2,3-b]pyridin-4-yl)-4-methylpyridin-3-yl)-4-hydroxy-3,5-dimethylpiperidin-1-yl)tetrahydro-2H-thiopyran 1,1-dioxide]
[1]
  IC50: 2080 nM
[2]
  IC50: > 10000 nM
[3]
  IC50: 4250 nM

## Cc1cc(-c2ccnc3[nH]cc(F)c23)ccc1[C@@]1(O)[C@H](C)CN(C2CCC2)C[C@@H]1C [Compound 54, (3R,4s,5S)-1-cyclobutyl-4-(4-(3-fluoro-1H-pyrrolo[2,3-b]pyridin-4-yl)-2-methylphenyl)-3,5-dimethylpiperidin-4-ol]
[1]
  IC50: 2.5 nM
[2]
  IC50: 51 nM
[3]
  IC50: 2.3 nM

## Cc1cc(-c2ccnc3[nH]cc(F)c23)ccc1[C@@]1(O)[C@H](C)CN(C2CCS(=O)(=O)CC2)C[C@@H]1C [Compound 55, 4-((3R,4s, 5S)-4-(4-(3-fluoro-1H-pyrrolo[2,3-b]pyridin-4-yl)-2-methylphenyl)-4-hydroxy-3,5S-dimethylpiperidin-1-yl)tetrahydro-2H-thiopyran 1,1-dioxide]
[1]
  IC50: 9 nM
[2]
  IC50: 62.8 nM
[3]
  IC50: 12.1 nM

## Cc1cc(-c2ccnc3[nH]cc(F)c23)cc(F)c1[C@@]1(O)[C@H](C)CN(C2CCS(=O)(=O)CC2)C[C@@H]1C [Compound 57, 4-((3R,4s,5S)-4-(2-fluoro-4-(3-fluoro-1H-pyrrolo[2,3-b]pyridin-4-yl)-6-methylphenyl)-4-hydroxy-3,5-dimethylpiperidin-1-yl)tetrahydro-2H-thiopyran 1,1-dioxide]
[1]
  IC50: 4.4 nM
[2]
  IC50: 374 nM
[3]
  IC50: 5.3 nM

## C[C@@H]1CN(C(=O)CN)C[C@H](C)[C@@]1(O)c1c(F)cc(-c2ccnc3[nH]cc(F)c23)cc1F [Compound 58]
[1]
  IC50: 22 nM
[2]
  IC50: 621 nM
[3]
  IC50: 11.1 nM

## Cc1cc(-c2ccnc3[nH]cc(F)c23)ccc1[C@@]1(O)[C@H](C)CN(C(=O)CN)C[C@@H]1C [Compound 60, 2-amino-1-((3R,4s,5S)-4-(4-(3-fluoro-1H-pyrrolo[2,3-b]pyridin-4-yl)-2-methylphenyl)-4-hydroxy-3,5-dimethylpiperidin-1-yl)ethan-1-one]
[1]
  IC50: 8.3 nM
[2]
  IC50: 49.2 nM
[3]
  IC50: 6.7 nM

## Cc1cc(-c2ccnc3[nH]cc(F)c23)cc(F)c1[C@@]1(O)[C@H](C)CN(C(=O)CN)C[C@@H]1C [Compound 61, 2-amino-1-((3R,4s,5S)-4-(2-fluoro-4-(3-fluoro-1H-pyrrolo[2,3-b]pyridin-4-yl)-6-methylphenyl)-4-hydroxy-3,5-dimethylpiperidin-1-yl)ethan-1-one]
[1]
  IC50: 3.2 nM
[2]
  IC50: 197 nM
[3]
  IC50: 3.2 nM

## C[C@@H]1CN(CC(N)=O)C[C@H](C)[C@@]1(O)c1c(F)cc(-c2ccnc3[nH]cc(F)c23)cc1F [Compound 88, 2-((3R,4s,5S)-4-(2,6-difluoro-4-(3-fluoro-1H-pyrrolo[2,3-b]pyridin-4-yl)phenyl)-4-hydroxy-3,5-dimethylpiperidin-1-yl)acetamide]
[1]
  IC50: 2.5 nM
[2]
  IC50: 323 nM
[3]
  IC50: 2.9 nM

## C[C@@H]1CN(C2CCNCC2)C[C@H](C)[C@@]1(O)c1c(F)cc(-c2ccnc3[nH]cc(F)c23)cc1F [Compound 90, (3R,4s,5S)-4-(2,6-difluoro-4-(3-fluoro-1H-pyrrolo[2,3-b]pyridin-4-yl)phenyl)-3,5-dimethyl-[1,4′-bipiperidin]-4-ol]
[1]
  IC50: 4.9 nM
[2]
  IC50: 100 nM
[3]
  IC50: 4.6 nM

## OC1(c2ccc(-c3ccnc4[nH]cc(F)c34)cc2)CCNCC1 [Compound 110, 4-(4-(3-fluoro-1H-pyrrolo[2,3-b]pyridin-4-yl)phenyl)piperidin-4-ol]
[1]
  IC50: 5.7 nM
[2]
  IC50: 490 nM
[3]
  IC50: 2.9 nM

## OC1(c2ccc(-c3ccnc4[nH]ccc34)cc2)CCNCC1 [Compound 111, 4-(4-(1H-pyrrolo[2,3-b]pyridin-4-yl)phenyl)piperidin-4-ol]
[1]
  IC50: 22 nM
[2]
  IC50: 1100 nM
[3]
  IC50: 22 nM

## Cc1cc(-c2ccnc3[nH]cc(F)c23)cc(F)c1C1(O)CC2(CN(C3COC3)C2)C1 [Compound 139, 6-(2-fluoro-4-(3-fluoro-1H-pyrrolo[2,3-b]pyridin-4-yl)-6-methylphenyl)-2-(oxetan-3-yl)-2-azaspiro[3.3]heptan-6-ol]
[1]
  IC50: 5.9 nM
[2]
  IC50: 698 nM
[3]
  IC50: 9 nM

## O=C([C@H]1CCCN1)N1CCC(O)(c2ccc(-c3ccnc4[nH]cc(F)c34)cc2)CC1 [Compound 142]
[1]
  IC50: 7.8 nM
[2]
  IC50: 1350 nM
[3]
  IC50: 4.4 nM

## Fc1c[nH]c2nccc(-c3ccc(C4CCNCC4)cc3)c12 [Compound 169, 3-fluoro-4-(4-(piperidin-4-yl)phenyl)-1H-pyrrolo[2,3-b]pyridine]
[1]
  IC50: 15 nM
[2]
  IC50: 1180 nM
[3]
  IC50: 14 nM

## Fc1c[nH]c2nccc(-c3ccc(C4CCNCC4)c(Cl)c3)c12 [Compound 172, 4-(3-chloro-4-(piperidin-4-yl)phenyl)-3-fluoro-1H-pyrrolo[2,3-b]pyridine]
[1]
  IC50: 9.6 nM
[2]
  IC50: 715 nM
[3]
  IC50: 19 nM

## Clc1c[nH]c2nccc(-c3ccc(C4CCNCC4)cc3)c12 [Compound 173, 3-chloro-4-(4-(piperidin-4-yl)phenyl)-1H-pyrrolo[2,3-b]pyridine]
[1]
  IC50: 7.2 nM
[2]
  IC50: 330 nM
[3]
  IC50: 8 nM

## Cc1cc(-c2ccnc3[nH]ccc23)ccc1C1CCNCC1 [Compound 177, 4-(3-methyl-4-(piperidin-4-yl)phenyl)-1H-pyrrolo[2,3-b]pyridine]
[1]
  IC50: 11 nM
[2]
  IC50: 684 nM
[3]
  IC50: 14 nM

## c1cc(-c2ccc(C3CC4CCC(C3)N4)cc2)c2cc[nH]c2n1 (stereo not drawn) [Compound 184, 4-(4-(8-azabicyclo[3.2.1]octan-3-yl)phenyl)-1H-pyrrolo[2,3-b]pyridine]
[1]
  IC50: 25 nM
[2]
  IC50: 940 nM
[3]
  IC50: 50 nM

## CC1CC(c2ccc(-c3ccnc4[nH]ccc34)cc2)CC(C)N1 (stereo not drawn) [Compound 187, 4-(4-(2,6-dimethylpiperidin-4-yl)phenyl)-1H-pyrrolo[2,3-b]pyridine]
[1]
  IC50: 66.1 nM
[2]
  IC50: 1440 nM
[3]
  IC50: 62.6 nM

## CC1(c2ccc(-c3ccnc4[nH]ccc34)cc2)CCNCC1 [Compound 201, 4-(4-(4-methylpiperidin-4-yl)phenyl)-1H-pyrrolo[2,3-b]pyridine]
[1]
  IC50: 59 nM
[2]
  IC50: 200 nM
[3]
  IC50: 43 nM
